From the supplement of paper PMC12370961

Columns and labels:
Assay in all cases: differential drug sensitivity score (dDSS) relative to sarcoma reference cohort mean DSS (DSS units (0-100 scale difference)); higher = more selective sensitivity than reference sarcomas
Conditions in all cases: exposure time: 72 h; concentration range: 10-10000 nM
ES-ZH009 = test system: ES-ZH009 (patient-derived Ewing sarcoma tumoroid)
Experimental: (§1)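 Drug response profiling of patient-derived Ewing sarcoma and CIC::DUX4 sarcoma tumoroid models (or cells tested directly after isolation from the tumor, 'direct'). The DSS is the normalised AUC (0-100); dDSS is the sample DSS minus the mean DSS of a 34-sarcoma reference cohort profiled in the same lab.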

CDS-ZH003 = test system: CDS-ZH003 (patient-derived CIC-DUX4 sarcoma tumoroid)
Experimental: as §1

ES-ZH002 = test system: ES-ZH002 (patient-derived Ewing sarcoma tumoroid)
Experimental: as §1

ES-ZH001 = test system: ES-ZH001 (patient-derived Ewing sarcoma tumoroid)
Experimental: as §1

CDS-ZH002 direct = test system: CDS-ZH002 direct (CIC-DUX4 sarcoma cells right after isolation)
Experimental: as §1

CDS-ZH001-2 = test system: CDS-ZH001-2 (patient-derived CIC-DUX4 sarcoma tumoroid)
Experimental: as §1

CDS-ZH001 = test system: CDS-ZH001 (patient-derived CIC-DUX4 sarcoma tumoroid)
Experimental: as §1

ES-ZH016 = test system: ES-ZH016 (patient-derived Ewing sarcoma tumoroid)
Experimental: as §1

ES-ZH004 = test system: ES-ZH004 (patient-derived Ewing sarcoma tumoroid)
Experimental: as §1

ES-ZH016 direct = test system: ES-ZH016 direct (Ewing sarcoma cells right after isolation)
Experimental: as §1

CDS-ZH002 = test system: CDS-ZH002 (patient-derived CIC-DUX4 sarcoma tumoroid)
Experimental: as §1

ES-ZH008 = test system: ES-ZH008 (patient-derived Ewing sarcoma tumoroid)
Experimental: as §1

ES-ZH007 = test system: ES-ZH007 (patient-derived Ewing sarcoma tumoroid)
Experimental: as §1

Compound	differential drug sensitivity score (ES-ZH009)	differential drug sensitivity score (CDS-ZH003)	differential drug sensitivity score (ES-ZH002)	differential drug sensitivity score (ES-ZH001)	differential drug sensitivity score (CDS-ZH002 direct)	differential drug sensitivity score (CDS-ZH001-2)	differential drug sensitivity score (CDS-ZH001)	differential drug sensitivity score (ES-ZH016)	differential drug sensitivity score (ES-ZH004)	differential drug sensitivity score (ES-ZH016 direct)	differential drug sensitivity score (CDS-ZH002)	differential drug sensitivity score (ES-ZH008)	differential drug sensitivity score (ES-ZH007)
COc1cc(NS(C)(=O)=O)ccc1Nc1c2ccccc2nc2ccccc12 [Amsacrine]	8.4	-12.8	27.1	12.5	-4.1	3	-1.9	13.7	8.8	13.3	1.6	16.3	8.9
CN(Cc1cnc2nc(N)nc(N)c2n1)c1ccc(C(=O)N[C@@H](CCC(=O)O)C(=O)O)cc1 [Methotrexate]	21.6	-14	-0.6	11.6	-10.4	-10.9	0	4.4	-9.9	-5.4	-4.9	-6.2	-3.6
Cc1nc(NC(=O)N2CCC[C@H]2C(N)=O)sc1-c1ccnc(C(C)(C)C(F)(F)F)c1 [Alpelisib]	2.5	0.2	11	-3.7	-2	4.9	2.9	1	0.8	0.9	-3	11	-1.9
C=CC(=O)N1CCC[C@@H](n2nc(-c3ccc(Oc4ccccc4)cc3)c3c(N)ncnc32)C1 [Ibrutinib]	-2.7	-2.7	0.4	-2.1	-2.1	-2.7	-2.7	-2.7	-2.5	1.4	-2.7	-2.2	-2.7
O=c1[nH]c2ccccc2n1C1CCN(CCCC(c2ccc(F)cc2)c2ccc(F)cc2)CC1 [Pimozide]	7.1	5.1	-2.4	-4.3	-2.1	6.3	3.4	5.5	-3.1	7.3	0.9	-3.6	-2.3
COc1cc(OC)c2c(=O)[nH]c(-c3cc(C)c(OCCO)c(C)c3)nc2c1 [Apabetalone]	0.5	3.6	0.6	-0.7	-0.7	-0.7	-0.6	-0.7	0.6	-0.7	-0.7	3.2	-0.7
O=C(Nc1cnn2ccc(N3CCC[C@@H]3c3cc(F)ccc3F)nc12)N1CC[C@H](O)C1 [Larotrectinib]	-0.9	8.8	-0.9	-0.9	-0.9	-0.9	1.2	-0.9	-0.8	-0.9	-0.9	-0.9	-0.9
S=P(N1CC1)(N1CC1)N1CC1 [Thiotepa]	-1.4	9.4	11.2	7	-4.2	0.2	4.6	9.2	5.2	17	-3.1	8.7	3.1
CC1(COc2ccc3c(c2)ncn3-c2ccc3cccc(N4CCC(N)CC4)c3n2)COC1 [Crenolanib]	2.8	-4.2	3.4	4	-1.7	1.4	2.5	-1.3	2.9	1.2	-2.3	-0.6	4
CC(=O)[C@]1(O)Cc2c(O)c3c(c(O)c2[C@@H](O[C@H]2C[C@H](N)[C@H](O)[C@H](C)O2)C1)C(=O)c1ccccc1C3=O [Idarubicin]	13.4	0.5	19.4	11.8	1.8	7	-0.3	11.8	-2.2	7.3	0.5	6.4	-9.5
CN[C@@H](C)C(=O)N[C@H](C(=O)N1CCC[C@H]1C(=O)Nc1snnc1-c1ccccc1)C1CCCCC1 [GDC0152]	4.5	11.1	1.9	-3.6	5.8	7.6	12.4	-3.6	4.8	0.6	-2.5	10.7	-0.8
CCc1cnn2c(NCc3ccc[n+]([O-])c3)cc(N3CCCC[C@H]3CCO)nc12 [Dinaciclib]	13.8	14	11.7	9.8	12.8	11.5	14	12.2	9.8	11.6	12	6.6	9.6
